EC50 data for 24 compounds are collected here from patent US12612407B2, “Imidazo[2,1-f][1,2,4]triazin-4-amine derivatives as TLR7 agonist” (BEIGENE, LTD., priority 2020, dated 2026).

Each structure is given as a SMILES string.

As usually defined, the EC50 is the concentration needed to bring the measured effect to its halfway point. Read a low EC50 as an effect from little substance.

This test has as its target T1, human TLR7 (Homo sapiens, UniProt Q9NYK1).
T1 construct: host or cells: HEK293 (HEK-Blue hTLR7)
T1 sequence (Q9NYK1 27-1049): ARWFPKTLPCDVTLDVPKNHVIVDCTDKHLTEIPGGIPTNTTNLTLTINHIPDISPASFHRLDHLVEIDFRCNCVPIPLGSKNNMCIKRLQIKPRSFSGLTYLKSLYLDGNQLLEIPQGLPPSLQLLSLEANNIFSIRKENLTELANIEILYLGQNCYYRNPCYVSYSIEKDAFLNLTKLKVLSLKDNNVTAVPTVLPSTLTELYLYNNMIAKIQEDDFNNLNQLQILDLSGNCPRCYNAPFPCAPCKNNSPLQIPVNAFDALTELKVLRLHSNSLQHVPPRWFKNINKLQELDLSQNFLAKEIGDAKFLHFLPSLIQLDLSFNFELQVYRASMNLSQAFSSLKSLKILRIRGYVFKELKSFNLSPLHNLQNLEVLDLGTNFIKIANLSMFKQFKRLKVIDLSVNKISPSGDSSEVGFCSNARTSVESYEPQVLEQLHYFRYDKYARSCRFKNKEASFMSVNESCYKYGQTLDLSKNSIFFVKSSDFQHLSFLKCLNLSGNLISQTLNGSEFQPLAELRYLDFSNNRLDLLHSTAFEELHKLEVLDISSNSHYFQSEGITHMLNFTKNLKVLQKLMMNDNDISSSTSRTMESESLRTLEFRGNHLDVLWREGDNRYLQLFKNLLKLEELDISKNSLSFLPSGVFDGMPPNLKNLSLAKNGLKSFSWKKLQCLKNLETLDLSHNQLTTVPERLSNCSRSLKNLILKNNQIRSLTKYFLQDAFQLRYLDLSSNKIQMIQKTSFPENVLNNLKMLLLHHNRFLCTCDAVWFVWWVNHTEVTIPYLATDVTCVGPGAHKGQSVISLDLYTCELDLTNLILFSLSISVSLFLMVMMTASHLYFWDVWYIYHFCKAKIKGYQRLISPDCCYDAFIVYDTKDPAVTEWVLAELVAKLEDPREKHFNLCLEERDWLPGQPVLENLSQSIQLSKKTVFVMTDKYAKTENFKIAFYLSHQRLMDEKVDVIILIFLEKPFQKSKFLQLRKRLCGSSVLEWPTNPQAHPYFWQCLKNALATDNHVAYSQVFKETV
The experiment in a line: HEK293-Blue hTLR7 Reporter Assay (QUANTI-BLUE, SEAP readout). Type of test: cell-based. The note with it: HEK-Blue-hTLR7 cells, 24 hrs treatment, Table 1, B1-B232. A digest of the protocol: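 HEK-Blue-hTLR7 cells expressing NF-κB/AP-1-driven SEAP, 4×10^4 cells/well, treated 24 h at 37° C with increasing compound concentrations. Supernatant SEAP measured with Quanti-blue substrate (10-30 min, 37° C) at 620-655 nm; EC50 from sigmoidal dose-response fit.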
For orientation: In a reporter assay the amount or activity of a reporter protein is the signal.

As for `CCCCOc1nc(N)c2ncc(Cc3cnc(N4CCN(S(=O)(=O)CCC)CC4)c(C)c3)n2n1` [Compound B89, 2-butoxy-7-((5-methyl-6-(4-(propylsulfonyl)piperazin-1-yl)pyridin-3-yl)methyl)imidazo[2,1-f][1,2,4]triazin-4-amine], the EC50 is more than 10000 nM.

As to `CCCCNc1nc(N)c2ncc(Cc3cnc(N4CCN(C(=O)CN(C)C)CC4)c(C)c3)n2n1` [Compound B71, 1-(4-(5-((4-amino-2-(butylamino)imidazo[2,1-f][1,2,4]triazin-7-yl)methyl)-3-methylpyridin-2-yl)piperazin-1-yl)-2-(dimethylamino)ethan-1-one], a half-maximal response (EC50) required 31 nM.

Take `CCCCOc1nc(N)c2ncc(Cc3cnc(N4CCN(C(=O)[C@@H]5CCCN5)CC4)c(C)c3)n2n1` [Compound B68, (S)-4-amino-2-butoxy-7-((5-methyl-6-(4-prolylpiperazin-1-yl)pyridin-3-yl)methyl)imidazo[2,1-f][1,2,4]triazine]: the EC50 came to 106 nM.

For the compound `CCCCOc1nc(N)c2ncc(Cc3ccc(C4CCNCC4)nc3C)n2n1` [Compound B54, 2-butoxy-7-((2-methyl-6-(piperidin-4-yl)pyridin-3-yl)methyl)imidazo[2,1-f][1,2,4]triazin-4-amine], the EC50 worked out at 158 nM.

Compound `CCCCOc1nc(N)c2ncc(Cc3cnc(N4CCN(CCOC)CC4)c(C)c3)n2n1` [Compound B107, 2-butoxy-7-((6-(4-(2-methoxyethyl)piperazin-1-yl)-5-methylpyridin-3-yl)methyl)imidazo[2,1-f][1,2,4]triazin-4-amine] had an EC50 of 185 nM.

Regarding `CCC[C@H](C)Oc1nc(N)c2ncc(Cc3cnc(N4CCN(C(=O)CNC)CC4)c(C)c3)n2n1` [Compound B154, (S)-1-(4-(5-((4-amino-2-(pentan-2-yloxy)imidazo[2,1-f][1,2,4]triazin-7-yl)methyl)-3-methylpyridin-2-yl)piperazin-1-yl)-2-(methylamino)ethan-1-one], it took 1.6 nM to reach a half-maximal effect (EC50).

`COCCOCCOCCOCCOCCOCCOc1nc(N)c2ncc(Cc3cnc(N4CCNCC4)c(C)c3)n2n1` [Compound B120, 2-((2,5,8,11,14,17-hexaoxanonadecan-19-yl)oxy)-7-((5-methyl-6-(piperazin-1-yl)pyridin-3-yl)methyl)imidazo[2,1-f][1,2,4]triazin-4-amine] returned an EC50 of more than 10000 nM.

`CCCCCOc1nc(N)c2ncc(Cc3cnc(N4CCNCC4)c(C)c3)n2n1` [Compound B23, 7-((5-methyl-6-(piperazin-1-yl)pyridin-3-yl)methyl)-2-(pentyloxy)imidazo[2,1-f][1,2,4]triazin-4-amine] gave an EC50 of 487 nM.

`CCCCOc1nc(N)c2ncc(Cc3ccc(C4CCN(C(=O)CN(C)C)CC4)cc3)n2n1` [Compound B14, 1-(4-(4-((4-amino-2-butoxyimidazo[2,1-f][1,2,4]triazin-7-yl)methyl)phenyl)piperidin-1-yl)-2-(dimethylamino)ethan-1-one] yielded an EC50 of 96 nM.

The compound `CCCCOc1nc(N)c2ncc(Cc3ccc(N4CCN[C@H](C)C4)c(C)c3)n2n1` [Compound B98, (R)-2-butoxy-7-(3-methyl-4-(3-methylpiperazin-1-yl)benzyl)imidazo[2,1-f][1,2,4]triazin-4-amine] yielded an EC50 of 1130 nM.

`CCCCOc1nc(N)c2ncc(Cc3ccc(N4CC(C)NC(C)C4)c(C)c3)n2n1` (stereo not drawn) [Compound B61, 2-butoxy-7-(4-(3,5-dimethylpiperazin-1-yl)-3-methylbenzyl)imidazo[2,1-f][1,2,4]triazin-4-amine] yielded an EC50 of 660 nM.

Regarding `CCCCCCCCOc1nc(N)c2ncc(Cc3cnc(N4CCNCC4)c(C)c3)n2n1` [Compound B43, 7-((5-methyl-6-(piperazin-1-yl)pyridin-3-yl)methyl)-2-(octyloxy)imidazo[2,1-f][1,2,4]triazin-4-amine], the EC50 was more than 10000 nM.

`CCCCOc1nc(N)c2ncc(Cc3cnc(N4CCNCC4)cc3C)n2n1` [Compound B48, 2-butoxy-7-((4-methyl-6-(piperazin-1-yl)pyridin-3-yl)methyl)imidazo[2,1-f][1,2,4]triazin-4-amine] gave an EC50 of 4770 nM.

On to `CCCCNc1nc(N)c2ncc(Cc3ccc(C4CCNCC4)cc3)n2n1` [Compound B18, N2-butyl-7-(4-(piperidin-4-yl)benzyl)imidazo[2,1-f][1,2,4]triazine-2,4-diamine], for which the EC50 turned out to be 171 nM.

As for `CCC[C@@H](CCO)Nc1nc(N)c2ncc(Cc3cnc(N4CCC(CNC)CC4)c(C)c3)n2n1` [Compound B228, (S)-3-((4-amino-7-((5-methyl-6-(4-((methylamino)methyl)piperidin-1-yl)pyridin-3-yl)methyl)imidazo[2,1-f][1,2,4]triazin-2-yl)amino)hexan-1-ol], the EC50 stood at 37 nM.

The compound `CCCC(C)Oc1nc(N)c2ncc(Cc3cnc(N4CCC(N(C)C)CC4)c(C)c3)n2n1` (stereo not drawn) [Compound B133, 7-((6-(4-(dimethylamino)piperidin-1-yl)-5-methylpyridin-3-yl)methyl)-2-(pentan-2-yloxy)imidazo[2,1-f][1,2,4]triazin-4-amine] showed a concentration for a half-maximal effect (EC50) of 5.6 nM.

For the compound `CCCCOc1nc(N)c2ncc(Cc3ccc(N4CCNCC4)c(OCC)c3)n2n1` [Compound B26, 2-butoxy-7-(3-ethoxy-4-(piperazin-1-yl)benzyl)imidazo[2,1-f][1,2,4]triazin-4-amine], it took 295 nM to reach a half-maximal effect (EC50).

Regarding `CCC[C@@H](C)Oc1nc(N)c2ncc(Cc3cnc(N4CCC(CN(C)C)CC4)c(C)c3)n2n1` [Compound B128, (R)-7-((6-(4-((dimethylamino)methyl)piperidin-1-yl)-5-methylpyridin-3-yl)methyl)-2-(pentan-2-yloxy)imidazo[2,1-f][1,2,4]triazin-4-amine], the EC50 was determined as 41 nM.

Compound `CCCCOc1nc(N)c2ncc(Cc3cnc(N4CCN(CC)CC4)c(C)c3)n2n1` [Compound B114, 2-butoxy-7-((6-(4-ethylpiperazin-1-yl)-5-methylpyridin-3-yl)methyl)imidazo[2,1-f][1,2,4]triazin-4-amine] registered an EC50 of 168 nM.

`CCCC(C)Nc1nc(N)c2ncc(Cc3cnc(N4CCNCC4)c(C)c3)n2n1` (stereo not drawn) [Compound B150, 7-((5-methyl-6-(piperazin-1-yl)pyridin-3-yl)methyl)-N2-(pentan-2-yl)imidazo[2,1-f][1,2,4]triazine-2,4-diamine] showed an EC50 of 2.5 nM.

With `CCCCOc1nc(N)c2ncc(Cc3cnc(N4CCN(C)CC4)c(Cl)c3)n2n1` [Compound B1, 2-butoxy-7-((5-chloro-6-(4-methylpiperazin-1-yl)pyridin-3-yl)methyl)imidazo[2,1-f][1,2,4]triazin-4-amine], a half-maximal effect (EC50) was put at 501 nM.

As to `CCCCOc1nc(N)c2ncc(Cc3cnc(N4CCC(CNC)CC4)c(C)c3)n2n1` [Compound B106, 2-butoxy-7-((5-methyl-6-(4-((methylamino)methyl)piperidin-1-yl)pyridine-3-yl)methyl)imidazo[2,1-f][1,2,4]triazin-4-amine], the EC50 was found to be 71 nM.

On to `CCCNc1nc(N)c2ncc(Cc3cnc(N4CCNCC4)c(C)c3)n2n1` [Compound B139, 7-((5-methyl-6-(piperazin-1-yl)pyridin-3-yl)methyl)-N2-propylimidazo[2,1-f][1,2,4]triazine-2,4-diamine], for which the EC50 was 88 nM.

As for `CCCCOc1nc(N)c2ncc(Cc3cnc(N4CCN(CCN)CC4)c(C)c3)n2n1` [Compound B91, 7-((6-(4-(2-aminoethyl)piperazin-1-yl)-5-methylpyridin-3-yl)methyl)-2-butoxyimidazo[2,1-f][1,2,4]triazin-4-amine], the EC50 stood at 150 nM.
